Measurements as given in publication PMC6480224, “Synthesis of Pyridine-Dicarboxamide-Cyclohexanone Derivatives: Anticancer and α-Glucosidase Inhibitory Activities and In Silico Study” (Molecules, 2019).
Read-outs that look alike come from different tables or passages of the source.

Experiments:
[1] = tested on: MCF-7 breast cancer (+ve ER) cells; assay: MTT cytotoxicity assay, MCF-7; assay type: cell-based; conditions: mean ± SD of three experiments, NA = no or negligible activity in initial crystal violet screening
Procedure: (§1) The cytotoxic activity of the new synthesized compounds was tested in different mammalian cancer cells, breast cancer (+ve ER) (MCF-7), breast cancer (−ve ER) (MDA-MB-231), tongue (oral cancer) (SAS), prostate cancer (PC-3), colorectal cancer (HCT-116) and hepatocellular carcinoma (HuH-7 and HepG-2). The cell lines were obtained from the American Type Culture Collection (ATCC). The cells were cultivated at 37 °C and 5% CO2 in DMEM (Lonza) medium supplemented with 10% fetal bovine serum (Lonza), 100 IU/mLpenicillin and 100 µg/mL streptomycin (Lonza). Cisplatin was used as a positive control and was obtained from Sigma-Aldrich. The synthesized compounds were solubilized in DMSO and stored at −20 °C. For the initial screening, 0.5% crystal violet was used. The viability of the cells were determined by using the MTT reagent.
(§2) “The cells were seeded in a 96-well plate and serial dilutions of the tested compounds or cisplatin was added after overnight incubation of the cells at 37 °C and 5% CO2. DMSO was used as a negative control (0.1%). After that, MTT (5 mg/mL PBS) was added after 48 hours of incubation. The formazan crystals were solubilized by the acidified SDS solution. The absorbance was recorded at 570 nm by Biotech ELx-800™ plate reader (Winooski, VT, USA). The viability assay was performed 3 times and the standard deviation was determined (±). IC50 was calculated as the concentration that causes 50% inhibition of cell growth. The selectivity index was calculated as previously reported” [26, 27].

[2] = tested on: MDA-MB-231 breast cancer (−ve ER) cells; assay: MTT cytotoxicity assay, MDA-MB-231; assay type: cell-based; conditions: mean ± SD of three experiments, NA = no or negligible activity in initial crystal violet screening
Procedure: as §1, §2

[3] = tested on: SAS tongue carcinoma (oral cancer) cells; assay: MTT cytotoxicity assay, SAS; assay type: cell-based; conditions: 48 h, mean ± SD of three experiments, NA = no or negligible activity in initial crystal violet screening
Procedure: as §1, §2

[4] = tested on: PC-3 prostate cancer cells; assay: MTT cytotoxicity assay, PC-3; assay type: cell-based; conditions: 48 h, mean ± SD of three experiments, NA = no or negligible activity in initial crystal violet screening
Procedure: as §1, §2

[5] = tested on: HCT-116 colorectal cancer cells; assay: MTT cytotoxicity assay, HCT-116; assay type: cell-based; conditions: mean ± SD of three experiments, NA = no or negligible activity in initial crystal violet screening, read-out: IC50 Colon HCT-116
Procedure: as §1
(§3) “The cells were seeded in a 96-well plate and serial dilutions of the tested compounds or cisplatin was added after overnight incubation of the cells at 37 °C and 5% CO2. DMSO was used as a negative control (0.1%). After that, MTT (5 mg/mL PBS) was added after 48 hours of incubation. […] The absorbance was recorded at 570 nm by Biotech ELx-800™ plate reader (Winooski, VT, USA). The viability assay was performed 3 times and the standard deviation was determined (±). […] The selectivity index was calculated as previously reported” [26, 27].

HuH-7 liver cancer cells = assay: MTT cytotoxicity assay, HuH-7; assay type: cell-based; conditions: mean ± SD of three experiments, NA = no or negligible activity in initial crystal violet screening
Procedure: as §1, §3

HepG2 liver cancer cells = assay: MTT cytotoxicity assay, HepG2; assay type: cell-based; conditions: mean ± SD of three experiments, NA = no or negligible activity in initial crystal violet screening
Procedure: as §1, §2

[6] = tested on: seven cancer cell lines (MCF-7, MDA-MB-231, SAS, PC-3, HCT-116, HuH-7, HepG2); assay: Anticancer screening against the panel of seven cancer cell lines (crystal violet initial screening); assay type: cell-based; conditions: concentration of 50 μM
Procedure: To evaluate the anticancer activity of the 13 newly synthesized compounds, we screened their activities at a concentration of 50 μM against seven cancer cell lines, including breast cancer (positive [MCF-7] and negative [MDA-MB-231] for estrogen receptor expression), tongue carcinoma (SAS), prostate cancer (PC-3), colorectal cancer (HCT-116) and liver cancer (HuH-7 and HepG2) cell lines. […] The 3-(4,5-dimethylthiazol-2-yl)-2,5-diphenyltetrazolium bromide (MTT) assay was performed to determine the concentration of the active compounds needed to kill 50% of cells.
as §1

## O=C1CC(c2ccccc2)C(C(=O)Nc2ccccn2)(C(=O)Nc2ccccn2)C(c2ccccc2)C1 (stereo not drawn) [Compound 3a, 4-Oxo-2,6-diphenyl-N,N′-di(pyridin-2-yl)cyclohexane-1,1-dicarboxamide]
other
  melting point: 248 to 249 °C

## N.N.[Cl][Pt][Cl] [Cisplatin, reference compound]
[1]; 48 h
  IC50: 9 ± 2.43 µM
[2]; 48 h
  IC50: 15 ± 0.71 µM
[3]
  IC50: 4.5 ± 0.34 µM
[4]
  IC50: 12 ± 1.25 µM
[5]; 48 h
  IC50: 8 ± 0.76 µM
HuH-7 liver cancer cells; 48 h
  IC50: 14.7 ± 0.5 µM
HepG2 liver cancer cells; 48 h
  IC50: 10 ± 0.65 µM

## O=C1CC(c2ccc(Cl)cc2Cl)C(C(=O)Nc2ccccn2)(C(=O)Nc2ccccn2)C(c2ccc(Cl)cc2Cl)C1 (stereo not drawn) [Compound 3d, 2,6-bis(2,4-Dichlorophenyl)-4-oxo-N,N′-di(pyridin-2-yl)cyclohexane-1,1-dicarboxamide]
[1]; Homo sapiens, MCF7, 48 h
  IC50: > 50 µM
[2]; Homo sapiens, MDA-MB-231, 48 h
  IC50: 18 ± 0.87 µM
HepG2 liver cancer cells; Homo sapiens, HepG2, 48 h
  IC50: > 50 µM
[6]
  anticancer activity in initial screening: showed different levels of anticancer activities
other
  melting point: 210 to 211 °C

## O=C1CC(c2ccco2)C(C(=O)Nc2ccc(Cl)cn2)(C(=O)Nc2ccc(Cl)cn2)C(c2ccco2)C1 (stereo not drawn) [Compound 3j, N,N′-bis(5-Chloropyridin-2-yl)-2,6-di(furan-2-yl)-4-oxocyclohexane-1,1-dicarboxamide]
[1]; Homo sapiens, MCF7, 48 h
  IC50: 50 ± 0.78 µM
[2]; Homo sapiens, MDA-MB-231, 48 h
  IC50: 45 ± 3 µM
HepG2 liver cancer cells; Homo sapiens, HepG2, 48 h
  IC50: > 50 µM
other
  melting point: 160 to 161 °C

## O=C1CC(c2ccc(F)cc2)C(C(=O)Nc2ccccn2)(C(=O)Nc2ccccn2)C(c2ccc(F)cc2)C1 (stereo not drawn) [Compound 3m, 2,6-bis(4-Fluorophenyl)-4-oxo-N,N′-di(pyridin-2-yl)cyclohexane-1,1-dicarboxamide]
other
  melting point: 245 to 246 °C

## Cc1ccc(C2CC(=O)CC(c3ccc(C)cc3)C2(C(=O)Nc2ccc(Cl)cn2)C(=O)Nc2ccc(Cl)cn2)cc1 (stereo not drawn) [Compound 3b, N,N′-bis(5-Chloropyridin-2-yl)-4-oxo-2,6-di-p-tolylcyclohexane-1,1-dicarboxamide]
other
  melting point: 145 to 146 °C

## O=C1CC(c2cccc(Br)c2)C(C(=O)Nc2ccc(Cl)cn2)(C(=O)Nc2ccc(Cl)cn2)C(c2cccc(Br)c2)C1 (stereo not drawn) [Compound 3k, 2,6-bis(3-Bromophenyl)-N,N′-bis(5-chloropyridin-2-yl)-4-oxocyclohexane-1,1-dicarboxamide]
[6]
  anticancer activity in initial screening: showed different levels of anticancer activities
other
  melting point: 213 to 214 °C

## O=C1CC(c2cccs2)C(C(=O)Nc2ccc(Cl)cn2)(C(=O)Nc2ccc(Cl)cn2)C(c2cccs2)C1 (stereo not drawn) [Compound 3i, N,N′-bis(5-Chloropyridin-2-yl)-4-oxo-2,6-di(thiophen-2-yl)cyclohexane-1,1-dicarboxamide]
other
  melting point: 165 to 166 °C

## O=C1CC(c2cccc([N+](=O)[O-])c2)C(C(=O)Nc2ccc(Cl)cn2)(C(=O)Nc2ccc(Cl)cn2)C(c2cccc([N+](=O)[O-])c2)C1 (stereo not drawn) [Compound 3f, N,N′-bis(5-Chloropyridin-2-yl)-2,6-bis(3-nitrophenyl)-4-oxocyclohexane-1,1-dicarboxamide]
other
  melting point: 174 to 175 °C

## O=C1CC(c2ccc3ccccc3c2)C(C(=O)Nc2ccc(Cl)cn2)(C(=O)Nc2ccc(Cl)cn2)C(c2ccc3ccccc3c2)C1 (stereo not drawn) [Compound 3h, N,N′-bis(5-Chloropyridin-2-yl)-2,6-di(naphthalen-2-yl)-4-oxocyclohexane-1,1-dicarboxamide]
other
  melting point: 114 to 115 °C

## COc1ccc(C2CC(=O)CC(c3ccc(OC)cc3)C2(C(=O)Nc2ccc(Cl)cn2)C(=O)Nc2ccc(Cl)cn2)cc1 (stereo not drawn) [Compound 3g, N,N′-bis(5-Chloropyridin-2-yl)-2,6-bis(4-methoxyphenyl)-4-oxocyclohexane-1,1-dicarboxamide]
other
  melting point: 203 to 204 °C

## O=C1CC(c2ccc(Br)cc2)C(C(=O)Nc2ccccn2)(C(=O)Nc2ccccn2)C(c2ccc(Br)cc2)C1 (stereo not drawn) [Compound 3e, 2,6-bis(4-Bromorophenyl)-4-oxo-N,N′-di(pyridin-2-yl)cyclohexane-1,1-dicarboxamide]
[1]; 48 h
  IC50: 12 ± 0.54 µM
[2]; 48 h
  IC50: 5 ± 0.5 µM
HepG2 liver cancer cells; 48 h
  IC50: 8 ± 0.96 µM
[6]
  anticancer activity in initial screening: showed different levels of anticancer activities

## O=C1CC(c2ccc(C(F)(F)F)cc2)C(C(=O)Nc2ccc(Cl)cn2)(C(=O)Nc2ccc(Cl)cn2)C(c2ccc(C(F)(F)F)cc2)C1 (stereo not drawn) [Compound 3l, N,N′-bis(5-Chloropyridin-2-yl)-4-oxo-2,6-bis(4-(trifluoromethyl)phenyl)cyclohex-ane-1,1-dicarboxamide]
[1]; Homo sapiens, MCF7, 48 h
  IC50: 18 ± 1.71 µM
[2]; Homo sapiens, MDA-MB-231, 48 h
  IC50: 5 ± 0.25 µM
[3]
  IC50: 9 ± 0.38 µM
[4]
  IC50: > 50 µM
[5]; Homo sapiens, HCT-116, 48 h
  IC50: 6 ± 0.78 µM
HuH-7 liver cancer cells; Homo sapiens, Huh-7, 48 h
  IC50: 4.5 ± 0.3 µM
HepG2 liver cancer cells; Homo sapiens, HepG2, 48 h
  IC50: 25 ± 0.38 µM
[6]
  anticancer activity in initial screening: showed different levels of anticancer activities
other
  melting point: 138 to 139 °C

## O=C1CC(c2ccc(Cl)cc2)C(C(=O)Nc2ccccn2)(C(=O)Nc2ccccn2)C(c2ccc(Cl)cc2)C1 (stereo not drawn) [Compound 3c, 2,6-bis(4-Chlorophenyl)-4-oxo-N,N′-di(pyridin-2-yl)cyclohexane-1,1-dicarboxamide]
[1]; Homo sapiens, MCF7, 48 h
  IC50: 10 ± 0.62 µM
[2]; Homo sapiens, MDA-MB-231, 48 h
  IC50: 7 ± 1.12 µM
[3]
  IC50: 15 ± 1.3 µM
[4]
  IC50: 25 ± 1.42 µM
HepG2 liver cancer cells; Homo sapiens, HepG2, 48 h
  IC50: 8 ± 0.89 µM
[6]
  anticancer activity in initial screening: showed different levels of anticancer activities
other
  melting point: 231 to 232 °C
